Results reported in ChEMBL document CHEMBL1147145, “Scaffold targeting drug-resistant colon cancers” (J Med Chem, 2007).
pIC50: −log10 of the molar value. Non-standard residues stand in square brackets, D forms with d. Residues, ends and D or L forms follow the SMILES beside them. *: point of attachment. NMeF = CN[C@@H](Cc1ccccc1)C(=O)O; Cha = N[C@@H](CC1CCCCC1)C(=O)O; NMeL = CN[C@@H](CC(C)C)C(=O)O; dNMeL = CN[C@H](CC(C)C)C(=O)O; dNMeV = CN[C@@H](C(=O)O)C(C)C; Cbz = O=C(OCc1ccccc1)*; Sar = CNCC(=O)O

Columns and labels:
HCT-15 [1] = assay: Growth inhibition in HCT15 cells assessed as inhibition of [3H]thymidine incorporation at 1 uM relative to control; type: functional; conditions: Homo sapiens, read-out: TGI
HCT-116 [2] = assay: Growth inhibition in HCT116 cells assessed as inhibition of [3H]thymidine incorporation at 1 uM relative to control; type: functional; conditions: Homo sapiens, read-out: TGI
HCT-15 [3] = assay: Growth inhibition in HCT15 cells assessed as inhibition of [3H]thymidine incorporation; type: functional, cell-based; conditions: Homo sapiens
[4] = Growth inhibition in WS1 cells assessed as inhibition of [3H]thymidine incorporation; type: functional, cell-based; conditions: Homo sapiens
HCT-116 [5] = assay: Growth inhibition in HCT116 cells assessed as inhibition of [3H]thymidine incorporation; type: functional, cell-based; conditions: Homo sapiens

Row | Compound | inhibition of growth at 1 µM (HCT-15 [1]) [%] | inhibition of growth at 1 µM (HCT-116 [2]) [%] | pIC50 (HCT-15 [3]) | pIC50 [4] | pIC50 (HCT-116 [5])
1 | CC(C)C[C@@H]1NC(=O)[C@H](Cc2ccccc2)NC(=O)[C@H](CC(C)C)NC(=O)[C@H](C(C)C)N(C)C(=O)[C@H](CC(C)C)NC1=O | 23 | 6 | – | – | –
2 | CC(C)C[C@@H]1NC(=O)[C@H](Cc2ccccc2)NC(=O)[C@@H](Cc2ccccc2)N(C)C(=O)[C@H](C(C)C)NC(=O)[C@H](CC(C)C)NC1=O | 57 | 59 | 6.19 | 3.70 | –
3 | CC(C)C[C@@H]1NC(=O)[C@H](Cc2ccccc2)NC(=O)[C@@H](Cc2ccccc2)NC(=O)[C@H](C(C)C)NC(=O)[C@H](CC(C)C)NC1=O | 14 | 35 | 3.52 | – | 3.70
4 | CC(C)C[C@@H]1NC(=O)[C@@H](Cc2ccccc2)NC(=O)[C@@H](CC(C)C)NC(=O)[C@@H](C(C)C)N(C)C(=O)[C@H](CC(C)C)NC1=O | 35 | 44 | – | – | –
5 | CC(C)C[C@@H]1NC(=O)[C@@H](CC(C)C)N(C)C(=O)[C@H](Cc2ccccc2)NC(=O)[C@H](C(C)C)NC(=O)[C@H](C(C)C)NC1=O | 48 | 42 | 5.92 | 3.70 | 5.70
6 | CC(C)C[C@@H]1NC(=O)[C@H](C(C)C)NC(=O)[C@H](CC(C)C)N(C)C(=O)[C@H](CC(C)C)N(C)C(=O)[C@H](Cc2ccccc2)NC1=O | 57 | 30 | – | – | –
7 | CC(C)C[C@@H]1NC(=O)[C@@H](C(C)C)N(C)C(=O)[C@H](CC(C)C)NC(=O)[C@@H](CC(C)C)NC(=O)[C@H](Cc2ccccc2)NC1=O | 0 | 0 | – | – | –
8 | CC(C)C[C@@H]1NC(=O)[C@H](Cc2ccccc2)NC(=O)[C@H](CC(C)C)NC(=O)[C@@H](C(C)C)N(C)C(=O)[C@H](CC(C)C)NC1=O | 21 | 19 | – | – | –
9 | CC(C)C[C@@H]1NC(=O)[C@H](C(C)C)NC(=O)[C@H](CC(C)C)N(C)C(=O)[C@@H](CC(C)C)N(C)C(=O)[C@H](Cc2ccccc2)NC1=O | 30 | 23 | – | – | –
10 | CC(C)C[C@@H]1NC(=O)[C@H](Cc2ccccc2)NC(=O)[C@H](CC(C)C)NC(=O)[C@@H](C(C)C)NC(=O)[C@H](CCCCNC(=O)OCc2ccccc2)NC1=O (cyclo(FLK(Cbz)[dV]L)) | 3 | 16 | – | – | –
11 | CC(C)C[C@@H]1NC(=O)[C@H](Cc2ccccc2)NC(=O)[C@H](CC(C)C)NC(=O)[C@@H](C(C)C)NC(=O)[C@H](CCCCN)NC1=O (cyclo(FLK[dV]L)) | 18 | 11 | – | – | –
12 | CC(C)C[C@@H]1NC(=O)[C@H](Cc2ccccc2)NC(=O)[C@H](CC(C)C)NC(=O)[C@H](C(C)C)NC(=O)[C@H](CC(C)C)NC1=O (cyclo(FLLVL)) | 10 | 28 | 4.68 | 3.52 | –
13 | CC(C)C[C@@H]1NC(=O)[C@H](Cc2ccccc2)NC(=O)[C@@H](CC(C)C)NC(=O)[C@H](C(C)C)NC(=O)[C@H](CC(C)C)NC1=O (cyclo(FLLV[dL])) | 10 | 18 | – | – | –
14 | CC(C)C[C@@H]1NC(=O)[C@H](Cc2ccccc2)NC(=O)[C@@H](CC(C)C)N(C)C(=O)[C@H](C(C)C)NC(=O)[C@H](CC(C)C)NC1=O (cyclo(FLLV[dNMeL])) | 33 | 25 | – | – | –
15 | CC(C)C[C@@H]1NC(=O)[C@H](Cc2ccccc2)NC(=O)[C@H](CC(C)C)NC(=O)[C@@H](Cc2ccccc2)NC(=O)[C@H](CC(C)C)NC1=O (cyclo(FLL[dF]L)) | 11 | 11 | – | – | –
16 | CC(C)C[C@@H]1NC(=O)[C@H](Cc2ccccc2)NC(=O)[C@H](CC(C)C)NC(=O)[C@@H](CO)NC(=O)[C@H](CC(C)C)NC1=O (cyclo(FLL[dS]L)) | 11 | 0 | – | – | –

Row | Compound | inhibition of growth at 1 µM (HCT-15 [1]) [%] | inhibition of growth at 1 µM (HCT-116 [2]) [%] | pIC50 (HCT-15 [3]) | pIC50 [4] | pIC50 (HCT-116 [5])
17 | CC(C)C[C@@H]1NC(=O)[C@H](Cc2ccccc2)NC(=O)[C@H](CC(C)C)NC(=O)[C@@H](C(C)C)NC(=O)[C@H](CC(C)C)NC1=O (cyclo(FLL[dV]L)) | 48 | 48 | – | 4.70 | –
18 | CC(C)C[C@@H]1NC(=O)[C@H](Cc2ccccc2)NC(=O)[C@@H](CC(C)C)NC(=O)[C@@H](C(C)C)NC(=O)[C@H](CC(C)C)NC1=O (cyclo(FLL[dV][dL])) | 21 | 41 | – | – | –
19 | CC(C)C[C@@H]1NC(=O)[C@H](Cc2ccccc2)NC(=O)[C@H](CC(C)C)NC(=O)[C@H](C(C)C)NC(=O)[C@@H](CC(C)C)NC1=O (cyclo(FL[dL]VL)) | 15 | 0 | – | – | –
20 | CC(C)C[C@@H]1NC(=O)[C@H](C(C)C)NC(=O)[C@H](CC(C)C)NC(=O)[C@H](CC(C)C)N(C)C(=O)[C@H](Cc2ccccc2)NC1=O (cyclo(F[NMeL]LVL)) | 35 | 59 | – | – | –
21 | CC(C)C[C@@H]1NC(=O)[C@@H](C(C)C)NC(=O)[C@H](CC(C)C)NC(=O)[C@H](CC(C)C)N(C)C(=O)[C@H](Cc2ccccc2)NC1=O (cyclo(F[NMeL]L[dV]L)) | 19 | 38 | – | – | –
22 | CC(C)C[C@@H]1NC(=O)CN(C)C(=O)[C@H](Cc2ccccc2)NC(=O)[C@H](C(C)C)NC(=O)[C@@H](C(C)C)NC1=O (cyclo(F[Sar]L[dV]V)) | 18 | 20 | – | – | –
23 | CC(C)C[C@@H]1NC(=O)[C@@H](CC(C)C)NC(=O)[C@H](Cc2ccccc2)NC(=O)[C@H](CC(C)C)NC(=O)[C@@H](C(C)C)NC1=O (cyclo(F[dL]L[dV]L)) | 20 | 16 | – | – | –
24 | CC(C)C[C@@H]1NC(=O)[C@H](C(C)C)NC(=O)[C@@H](CC(C)C)NC(=O)[C@@H](CC(C)C)NC(=O)[C@H](Cc2ccccc2)NC1=O (cyclo(F[dL][dL]VL)) | 40 | 28 | – | – | –
25 | CC(C)C[C@@H]1NC(=O)[C@H](CC(C)C)NC(=O)[C@@H](Cc2ccccc2)NC(=O)[C@H](CC(C)C)NC(=O)[C@H](C(C)C)NC1=O (cyclo(LLVL[dF])) | 26 | 30 | – | – | –
26 | CC(C)C[C@@H]1NC(=O)[C@H](CC(C)C)NC(=O)[C@@H](Cc2c[nH]c3ccccc23)NC(=O)[C@H](CC(C)C)NC(=O)[C@H](C(C)C)NC1=O (cyclo(LLVL[dW])) | 9 | 2 | – | – | –
27 | CC(C)C[C@@H]1NC(=O)[C@H](CC(C)C)NC(=O)[C@@H](Cc2ccc(O)cc2)NC(=O)[C@H](CC(C)C)NC(=O)[C@H](C(C)C)NC1=O (cyclo(LLVL[dY])) | 60 | 45 | – | 3.70 | –
28 | CC(C)C[C@@H]1NC(=O)[C@H](Cc2ccc(O)cc2)NC(=O)[C@H](CC(C)C)N(C)C(=O)[C@H](C(C)C)NC(=O)[C@H](CC(C)C)NC1=O (cyclo(LLV[NMeL]Y)) | 3 | 20 | – | – | –
29 | CC(C)C[C@@H]1NC(=O)[C@H](Cc2ccccc2)NC(=O)[C@H](CC(C)C)NC(=O)[C@@H](C(C)C)N(C)C(=O)[C@H](CC2CCCCC2)NC1=O (cyclo([Cha][dNMeV]LFL)) | 60 | 48 | – | 4.80 | 5.70
30 | CC(C)C[C@@H]1NC(=O)[C@H](CC(C)C)NC(=O)[C@H](Cc2ccccc2)N(C)C(=O)[C@H](CC(C)C)NC(=O)[C@H](C(C)C)NC1=O (cyclo([NMeF]LLVL)) | 18 | 2 | – | – | –
31 | CC(C)C[C@@H]1NC(=O)[C@H](C(C)C)NC(=O)[C@H](CC(C)C)NC(=O)[C@@H](CC(C)C)N(C)C(=O)[C@H](Cc2ccccc2)NC1=O (cyclo([dNMeL]LVLF)) | 10 | 45 | – | – | –
32 | O=c1[nH]cc(F)c(=O)[nH]1 [FLUOROURACIL] | – | – | 3.52 | 3.52 | 3.52
